Test systems include 786-0 renal; OVCAR-5 ovarian; OVCAR-4 ovarian; SNB-75 CNS; HL-60(TB) leukemia; HT29 colon; NCI-H226 lung; MOLT-4 leukemia; OVCAR-8 ovarian; TK-10 renal.
Holding throughout (assay): NCI tumour cell line growth inhibition, 48 h

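Five concentrations, 48 hours, 96-well plates. GI50 = concentration required for 50% inhibition of growth. TGI is the concentration that stops growth completely.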 Bounds are passed on as bounds.

Take `CN1CCN(C)C1c1cccc(C2N(C)CCN2C)c1`: the TGI in the assay on 786-0 renal, with OVCAR-5 ovarian, in the assay on OVCAR-4 ovarian, in the assay with SNB-75 CNS, with HL-60(TB) leukemia and with HT29 colon was above 100 µM in each case. Moreover, the TGI in the assay with NCI-H226 lung and in the assay on MOLT-4 leukemia was above 100 µM each time.

For `O=C1c2ccccc2-c2cccc3ccc(Cc4ccccc4)c1c23`, the TGI in the assay with OVCAR-8 ovarian, with 786-0 renal, with OVCAR-5 ovarian, in the assay on OVCAR-4 ovarian, with TK-10 renal and in the assay with SNB-75 CNS was above 100 µM each time. Also, the TGI in the assay on HL-60(TB) leukemia, with HT29 colon and in the assay on MOLT-4 leukemia was above 100 µM in each case.

Take `N#Cc1c(N)c(C(=O)O)nn(-c2cccc(C(F)(F)F)c2)c1=O`: the TGI in the assay on OVCAR-8 ovarian, in the assay on 786-0 renal, in the assay with OVCAR-5 ovarian, with TK-10 renal, in the assay on SNB-75 CNS and with HL-60(TB) leukemia was above 100 µM each time. Moreover, the TGI in the assay on HT29 colon and in the assay with MOLT-4 leukemia was above 100 µM each time.

Turning to `CCN(Cc1c(F)cccc1F)c1ccc(CO)c(Cl)c1`, the GI50 in the assay on OVCAR-8 ovarian is 4.15 µM; in the assay on 786-0 renal it was 15.3 µM; in the assay with OVCAR-5 ovarian it was 0.0353 µM; in the assay on OVCAR-4 ovarian, 0.0429 µM; with SNB-75 CNS, 11 µM; in the assay with HL-60(TB) leukemia, 3.1 µM. For the same compound, the figures for the GI50 with HT29 colon, with NCI-H226 lung and in the assay on MOLT-4 leukemia were 0.747 µM, 0.0318 µM and 22.1 µM, respectively. Also, the TGI in the assay on OVCAR-8 ovarian was determined as 35.8 µM; in the assay on 786-0 renal, 45.6 µM; in the assay with OVCAR-5 ovarian, 0.147 µM; with OVCAR-4 ovarian it was 0.319 µM; in the assay with SNB-75 CNS, 49.6 µM; in the assay with HL-60(TB) leukemia it was 39.4 µM. The TGI in the assay on HT29 colon is 19.5 µM; in the assay on NCI-H226 lung, 0.126 µM; with MOLT-4 leukemia, 71.7 µM.

With `CC(=O)OCCOCBr`, the TGI in the assay on OVCAR-8 ovarian, in the assay with 786-0 renal, in the assay with OVCAR-5 ovarian, in the assay with OVCAR-4 ovarian, in the assay on TK-10 renal and with SNB-75 CNS was above 100 µM throughout. The TGI with HL-60(TB) leukemia, with HT29 colon and in the assay on NCI-H226 lung was above 100 µM in each case.

Consider `CCCCCC(C(O)C#N)C(O)(C(F)(F)F)C(F)(F)F` (stereo not drawn), for which the TGI in the assay on OVCAR-8 ovarian, in the assay with 786-0 renal, in the assay with OVCAR-5 ovarian, in the assay on OVCAR-4 ovarian, in the assay with TK-10 renal and in the assay on SNB-75 CNS was above 10 µM throughout. In addition, the TGI with HL-60(TB) leukemia, in the assay on HT29 colon and with MOLT-4 leukemia was above 10 µM each time.

Take `CC/C=C\C/C=C\C1CC(=O)NCCCNCCCCN1` (stereo not drawn): the TGI in the assay on OVCAR-8 ovarian, in the assay with 786-0 renal, in the assay with OVCAR-5 ovarian, in the assay on OVCAR-4 ovarian, in the assay on TK-10 renal and with SNB-75 CNS was above 100 µM in each case. The TGI in the assay on HL-60(TB) leukemia, in the assay on HT29 colon and with NCI-H226 lung was above 100 µM throughout.

As for `COc1ccc(C2=NC(C)(C)CO2)cc1`, the TGI in the assay on OVCAR-8 ovarian, in the assay on 786-0 renal, in the assay with OVCAR-5 ovarian, with OVCAR-4 ovarian, with TK-10 renal and with SNB-75 CNS was above 100 µM in each case. Besides, the TGI in the assay on HL-60(TB) leukemia and with HT29 colon was above 100 µM each time.

As to `C=C1C(=O)O[C@H]2[C@H]1CC/C(COC(=O)c1cc3cc(OC)ccc3[nH]1)=C\CC[C@@]1(C)O[C@@H]21`, the GI50 was 1.58 µM in the assay on OVCAR-8 ovarian; 1.27 µM in the assay with 786-0 renal; 1.77 µM in the assay with OVCAR-5 ovarian; 1.63 µM in the assay with OVCAR-4 ovarian; 1.28 µM in the assay with TK-10 renal; 0.326 µM in the assay on HL-60(TB) leukemia. Also, the GI50 is 0.351 µM in the assay with HT29 colon, 1.57 µM in the assay on NCI-H226 lung and 1.32 µM in the assay with MOLT-4 leukemia. The TGI in the assay with OVCAR-8 ovarian worked out at 3.37 µM; in the assay on 786-0 renal, 2.68 µM; in the assay on OVCAR-5 ovarian it was 3.76 µM; in the assay with OVCAR-4 ovarian, 3.24 µM; with TK-10 renal, 2.54 µM; with HL-60(TB) leukemia, 2.08 µM. In addition, the TGI with HT29 colon was 1.47 µM; in the assay on NCI-H226 lung, 3.94 µM; in the assay with MOLT-4 leukemia it was 5.21 µM.

In the case of `CC(O)CN1C(=O)NC(Cc2ccccc2)C1=O` (stereo not drawn), the TGI with OVCAR-8 ovarian, in the assay with 786-0 renal, in the assay on OVCAR-5 ovarian, with TK-10 renal, with SNB-75 CNS and in the assay on HL-60(TB) leukemia was above 100 µM in each case. In addition, the TGI with HT29 colon and in the assay with NCI-H226 lung was above 100 µM in each case.

On to `C=C1CC(COc2cc(Cl)nc(N)n2)C1`, for which the GI50 in the assay with OVCAR-8 ovarian was 43.7 µM; in the assay on 786-0 renal, 49.5 µM; in the assay on OVCAR-5 ovarian it was 66.9 µM; in the assay with OVCAR-4 ovarian, 67.8 µM; in the assay on SNB-75 CNS, 29.2 µM; with HL-60(TB) leukemia, 35.1 µM. Also, the figures for the GI50 in the assay with HT29 colon, with NCI-H226 lung and in the assay with MOLT-4 leukemia were 37 µM, 42.5 µM and 40.2 µM, respectively.

Source of the values: PubChem BioAssay (NCI).
